Key:
Kasumi-1 = test: Cancer cytotoxicity assay (Real-Time-Glo cell viability), Kasumi-1; type: cell-based; settings: Homo sapiens, leukemia cell, 72 hr
Protocol: (§1) The cytotoxicity of Compounds 1, 3, 4, 6, 7, 8, 9, 10, 12 and 13 against cancer cell lines was determined. To determine the optimal plating density for cell viability assays, for each cell line, cells were counted and diluted to final densities of 2.5, 5, 10 and 20 thousand per 100 μL of their respective growth media per well in 96 well plates. The Promega Real-Time-Glo cell viability kit was used to determine the optimal concentration for cell plating so that each cell line would be within the linear part of its growth curve after 72 hrs in culture. For the determination of test compound IC50s, different cancer cell lines were plated in 96 well plates in the pre-determined optimal density for each cell line. Test compounds were then added at different concentrations for the creation of six-point curve and cell density was determined using the Promega Real-Time-Glo cell viability kit after 24, 48, and 72 hrs in culture.

PLK4 = target: T1, PLK4 (Homo sapiens, UniProt O00444); test: Kinase inhibition assay (Eurofins DiscoverX KinaseProfiler / KdElect), PLK4; type: biochemical
T1 construct: purchased Eurofins DiscoverX (contract service)
T1 sequence (O00444 1-970): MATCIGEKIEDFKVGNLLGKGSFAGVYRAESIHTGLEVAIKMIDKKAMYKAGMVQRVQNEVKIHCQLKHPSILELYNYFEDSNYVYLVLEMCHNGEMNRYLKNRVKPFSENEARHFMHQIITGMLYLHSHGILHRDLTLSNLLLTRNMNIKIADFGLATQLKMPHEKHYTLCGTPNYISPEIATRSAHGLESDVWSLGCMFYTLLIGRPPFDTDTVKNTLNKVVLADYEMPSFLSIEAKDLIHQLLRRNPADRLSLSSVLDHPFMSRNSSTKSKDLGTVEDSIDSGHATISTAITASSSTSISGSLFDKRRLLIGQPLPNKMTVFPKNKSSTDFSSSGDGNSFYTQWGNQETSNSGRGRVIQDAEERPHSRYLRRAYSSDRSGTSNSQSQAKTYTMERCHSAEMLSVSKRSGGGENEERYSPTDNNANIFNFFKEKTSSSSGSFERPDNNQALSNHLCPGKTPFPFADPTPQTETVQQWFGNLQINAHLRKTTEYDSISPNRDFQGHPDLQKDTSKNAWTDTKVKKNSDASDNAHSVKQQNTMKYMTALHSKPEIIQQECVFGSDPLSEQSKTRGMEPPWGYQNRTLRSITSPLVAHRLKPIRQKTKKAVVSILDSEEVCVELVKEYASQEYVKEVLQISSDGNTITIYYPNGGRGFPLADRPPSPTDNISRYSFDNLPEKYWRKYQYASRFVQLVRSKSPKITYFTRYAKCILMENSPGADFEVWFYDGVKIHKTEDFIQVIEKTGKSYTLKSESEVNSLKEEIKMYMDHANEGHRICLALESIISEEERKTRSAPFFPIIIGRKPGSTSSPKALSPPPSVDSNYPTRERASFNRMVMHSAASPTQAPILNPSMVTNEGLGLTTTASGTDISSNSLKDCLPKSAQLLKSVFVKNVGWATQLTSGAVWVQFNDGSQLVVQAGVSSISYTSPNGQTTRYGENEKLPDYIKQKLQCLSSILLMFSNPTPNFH
Protocol: (§2) The activity of Compounds 1, 3, 4, 6, 7, 8, 9, 10 and 13 in inhibiting CLK1, CLK4, PLK4, and FLT3 kinases was determined. Stock solutions of the compounds being evaluated were prepared. The IC50 values were determined by the Eurofins DiscoverX services using either the KinaseProfiler or the KdElect kinase activity detection assays.

CLK4 = target: T2, CLK4 (Homo sapiens, UniProt Q9HAZ1); test: Kinase inhibition assay (Eurofins DiscoverX KinaseProfiler / KdElect), CLK4; type: biochemical
T2 construct: purchased Eurofins DiscoverX (contract service)
T2 sequence (Q9HAZ1 whole entry): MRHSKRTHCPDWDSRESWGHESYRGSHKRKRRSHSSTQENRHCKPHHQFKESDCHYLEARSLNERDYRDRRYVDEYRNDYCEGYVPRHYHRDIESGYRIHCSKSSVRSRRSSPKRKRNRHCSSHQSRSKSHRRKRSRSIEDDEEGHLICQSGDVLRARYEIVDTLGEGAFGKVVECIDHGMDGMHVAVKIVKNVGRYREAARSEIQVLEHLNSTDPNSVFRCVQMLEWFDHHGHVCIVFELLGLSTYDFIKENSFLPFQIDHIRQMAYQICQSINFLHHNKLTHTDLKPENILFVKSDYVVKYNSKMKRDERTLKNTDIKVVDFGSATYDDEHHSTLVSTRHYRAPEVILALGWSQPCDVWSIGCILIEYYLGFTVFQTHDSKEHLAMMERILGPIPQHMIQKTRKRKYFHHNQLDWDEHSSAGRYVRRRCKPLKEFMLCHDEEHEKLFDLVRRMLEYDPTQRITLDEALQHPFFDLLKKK
Protocol: as §2

786-O = test: Cancer cytotoxicity assay (Real-Time-Glo cell viability), 786-O; type: cell-based; settings: Homo sapiens, 786-0; kidney cancer, 72 hr
Protocol: as §1

A-498 = test: Cancer cytotoxicity assay (Real-Time-Glo cell viability), A-498; type: cell-based; settings: Homo sapiens, A498; kidney cancer, 72 hr
Protocol: as §1

SKOV-3 = test: Cancer cytotoxicity assay (Real-Time-Glo cell viability), SKOV-3; type: cell-based; settings: Homo sapiens, SK-OV-3; ovarian cancer cell line, 72 hr
Protocol: as §1

MV4-11 = test: Cancer cytotoxicity assay (Real-Time-Glo cell viability), MV4-11; type: cell-based; settings: Homo sapiens, leukemia cell, 72 hr
Protocol: as §1

Kasumi-3 = test: Cancer cytotoxicity assay (Real-Time-Glo cell viability), Kasumi-3; type: cell-based; settings: leukemia cell, 72 hr
Protocol: as §1

OV-90 = test: Cancer cytotoxicity assay (Real-Time-Glo cell viability), OV-90; type: cell-based; settings: Homo sapiens, ovarian cancer cell line, 72 hr
Protocol: as §1

HCT-116 = test: Cancer cytotoxicity assay (Real-Time-Glo cell viability), HCT-116; type: cell-based; settings: Homo sapiens, colorectal cancer cell line, 72 hr
Protocol: as §1

HT-29 = test: Cancer cytotoxicity assay (Real-Time-Glo cell viability), HT-29; type: cell-based; settings: Homo sapiens, colorectal cancer cell line, 72 hr
Protocol: as §1

CLK1 = target: T3, CLK1 (Homo sapiens, UniProt P49759); test: Kinase inhibition assay (Eurofins DiscoverX KinaseProfiler / KdElect), CLK1; type: biochemical
T3 construct: purchased Eurofins DiscoverX (contract service)
T3 sequence (P49759 whole entry): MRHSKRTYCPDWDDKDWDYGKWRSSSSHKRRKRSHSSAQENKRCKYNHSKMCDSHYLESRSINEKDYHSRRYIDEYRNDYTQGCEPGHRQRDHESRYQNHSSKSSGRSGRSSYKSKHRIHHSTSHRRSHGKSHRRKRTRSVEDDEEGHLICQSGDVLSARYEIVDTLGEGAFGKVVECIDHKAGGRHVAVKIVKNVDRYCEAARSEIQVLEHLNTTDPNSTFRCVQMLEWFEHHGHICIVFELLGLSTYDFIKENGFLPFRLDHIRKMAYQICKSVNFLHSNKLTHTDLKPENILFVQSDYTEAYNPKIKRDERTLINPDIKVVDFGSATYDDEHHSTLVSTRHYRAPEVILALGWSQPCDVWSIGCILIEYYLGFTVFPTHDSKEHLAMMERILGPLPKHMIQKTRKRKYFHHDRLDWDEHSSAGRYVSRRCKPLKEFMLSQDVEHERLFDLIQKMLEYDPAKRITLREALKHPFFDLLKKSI
Protocol: as §2

FLT3 = target: T4, FLT3 (Homo sapiens, UniProt P36888); test: Kinase assay (Eurofins DiscoverX KinaseProfiler / KdElect), FLT3; type: binding; settings: read-out: FLT3 (Kd50 nM)
T4 construct: purchased Eurofins DiscoverX (contract service)
T4 sequence (P36888 27-993): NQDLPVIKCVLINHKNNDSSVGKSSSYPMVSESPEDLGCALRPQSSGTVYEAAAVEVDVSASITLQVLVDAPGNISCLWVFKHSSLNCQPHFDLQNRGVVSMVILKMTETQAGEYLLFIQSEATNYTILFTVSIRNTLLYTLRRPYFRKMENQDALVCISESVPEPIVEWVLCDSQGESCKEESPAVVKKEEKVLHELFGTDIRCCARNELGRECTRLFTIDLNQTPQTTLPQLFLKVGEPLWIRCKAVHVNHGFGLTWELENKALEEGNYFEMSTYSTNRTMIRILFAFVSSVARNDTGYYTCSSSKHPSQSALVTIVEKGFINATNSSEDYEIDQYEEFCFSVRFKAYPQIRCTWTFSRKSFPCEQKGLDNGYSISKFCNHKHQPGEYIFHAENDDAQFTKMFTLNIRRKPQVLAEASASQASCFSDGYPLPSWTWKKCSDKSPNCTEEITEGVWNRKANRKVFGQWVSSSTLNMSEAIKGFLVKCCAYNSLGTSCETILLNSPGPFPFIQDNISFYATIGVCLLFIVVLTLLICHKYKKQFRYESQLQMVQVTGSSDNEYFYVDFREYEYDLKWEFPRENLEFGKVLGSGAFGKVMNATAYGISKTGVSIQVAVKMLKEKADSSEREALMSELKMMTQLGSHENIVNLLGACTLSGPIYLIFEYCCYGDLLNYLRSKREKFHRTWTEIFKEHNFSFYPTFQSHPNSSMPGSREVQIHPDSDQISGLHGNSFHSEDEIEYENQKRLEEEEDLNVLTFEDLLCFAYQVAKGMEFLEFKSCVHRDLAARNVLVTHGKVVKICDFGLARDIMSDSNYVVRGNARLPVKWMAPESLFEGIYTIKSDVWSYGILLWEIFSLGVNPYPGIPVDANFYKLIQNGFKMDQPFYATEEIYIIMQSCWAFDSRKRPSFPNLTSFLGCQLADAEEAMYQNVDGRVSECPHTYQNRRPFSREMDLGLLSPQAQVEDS
Protocol: Stock solutions of the compounds being evaluated were prepared. The IC50 values were determined by the Eurofins DiscoverX services using either the KinaseProfiler or the KdElect kinase activity detection assays.

Structure (SMILES) | IC50 (PLK4) [nM] | IC50 (CLK4) [nM] | IC50 (CLK1) [nM] | Kd (FLT3) [µM] | IC50 (Kasumi-1) [nM] | IC50 (786-O) [nM] | IC50 (A-498) [nM] | IC50 (SKOV-3) [nM] | IC50 (MV4-11) [nM] | IC50 (Kasumi-3) [nM] | IC50 (OV-90) [nM] | IC50 (HCT-116) [nM] | IC50 (HT-29) [nM]
COc1cc2c(Nc3nnc(C)s3)nc(N3CCC(F)(F)CC3)nc2cc1OCCCN1CCCC1 [Compound 12, N-(2-(4,4-difluoropiperidin-1-yl)-6-methoxy-7-(3-(pyrrolidin-1-yl)propoxy)quinazolin-4-yl)-5-methyl-1,3,4-thiadiazol-2-amine] |  |  |  |  | 1000 to 5000 | 5000 to 10000 | 1000 to 5000 | 1000 to 5000 | 1000 to 5000 | 1000 to 5000 | 1000 to 5000 | 1000 to 5000 | 1000 to 5000
COc1cc2c(Nc3cc(C(C)(C)C)[nH]n3)nc(N3CCC(F)(F)CC3)nc2cc1OCCCN1CCCC1 [Compound 7, N-(5-(tert-butyl)-1H-pyrazol-3-yl)-2-(4,4-difluoropiperidin-1-yl)-6-methoxy-7-(3-(pyrrolidin-1-yl)propoxy)quinazolin-4-amine] | > 10000 | < 1000 | < 1000 | > 10 | 1000 to 5000 | 1000 to 5000 | 1000 to 5000 | 1000 to 5000 | 1000 to 5000 | 1000 to 5000 | 1000 to 5000 | 1000 to 5000 | 1000 to 5000

Continued, in another order:

IC50 (PLK4) [nM] | IC50 (CLK4) [nM] | IC50 (CLK1) [nM] | Kd (FLT3) [µM] | Structure (SMILES) | IC50 (Kasumi-1) [nM] | IC50 (786-O) [nM] | IC50 (A-498) [nM] | IC50 (SKOV-3) [nM] | IC50 (MV4-11) [nM] | IC50 (Kasumi-3) [nM] | IC50 (OV-90) [nM] | IC50 (HCT-116) [nM] | IC50 (HT-29) [nM]
1000 to 5000 | < 1000 | < 1000 |  | COc1cc2c(Nc3cc(C4CCC4)[nH]n3)nc(N3CCC(F)(F)CC3)nc2cc1OCCCN1CCCC1 [Compound 10, N-(5-cyclobutyl-1H-pyrazol-3-yl)-2-(4,4-difluoropiperidin-1-yl)-6-methoxy-7-(3-(pyrrolidin-1-yl)propoxy)quinazolin-4-amine] | < 1000 | 1000 to 5000 | 1000 to 5000 | 1000 to 5000 | < 1000 | < 1000 | 1000 to 5000 | 1000 to 5000 | 1000 to 5000
> 10000 | < 1000 | < 1000 | 1 to 5 | COc1cc2c(Nc3cc(C(C)C)[nH]n3)nc(N3CCC(F)(F)CC3)nc2cc1OCCCN1CCCC1 [Compound 13, 2-(4,4-difluoropiperidin-1-yl)-N-(5-isopropyl-1H-pyrazol-3-yl)-6-methoxy-7-(3-(pyrrolidin-1-yl)propoxy)quinazolin-4-amine] | 1000 to 5000 | 1000 to 5000 | 1000 to 5000 | 1000 to 5000 | < 1000 | 1000 to 5000 | 1000 to 5000 | 1000 to 5000 | 1000 to 5000
< 1000 | < 1000 | < 1000 |  | COc1cc2c(Nc3cc(C4CC4)[nH]n3)nc(N3CCC(F)(F)CC3)nc2cc1OCCCN1CCCC1 [Compound 6, N-(5-cyclopropyl-1H-pyrazol-3-yl)-2-(4,4-difluoropiperidin-1-yl)-6-methoxy-7-(3-(pyrrolidin-1-yl)propoxy)quinazolin-4-amine] | 1000 to 5000 | 1000 to 5000 | 1000 to 5000 | 1000 to 5000 | < 1000 | 1000 to 5000 | 1000 to 5000 | 1000 to 5000 | 1000 to 5000
